Reference: ChEMBL document CHEMBL2380232, “Triazole derivatives: a series of Darapladib analogues as orally active Lp-PLA2 inhibitors” (Bioorg Med Chem Lett, 2013)
Calls of active or inactive are those of the source. The rule behind the calls is not given here.

How the values were obtained:
Oryctolagus cuniculus [1] = organism: Oryctolagus cuniculus; settings: Plasma, 10 nM
Description: Inhibition of Lp-PLA2 in rabbit plasma using [3H]PAF as substrate at 10 nM incubated for 5 mins prior to substrate addition measured after 10 mins by liquid scintillation counting analysis relative to control

Oryctolagus cuniculus [2] = organism: Oryctolagus cuniculus; settings: Plasma, 100 nM
Description: Inhibition of Lp-PLA2 in rabbit plasma using [3H]PAF as substrate at 100 nM incubated for 5 mins prior to substrate addition measured after 10 mins by liquid scintillation counting analysis relative to control

Mus musculus = organism: Mus musculus; settings: C57, 50 mg/kg
Description: In vivo inhibition of Lp-PLA2 in C57 mouse serum using 2-thio-PAF as substrate at 50 mg/kg, po measured over 24 hrs

SMILES: CN(C)[C@@H]1CCN(Cc2nnc(Cn3c(SCc4ccc(F)cc4)nc(=O)c4c3CCC4)n2Cc2ccc(-c3ccc(C(F)(F)F)cc3)cc2)C1
- inhibition (Oryctolagus cuniculus [1]): 54%

SMILES: CC(c1nnc(Cn2c(SCc3ccc(F)cc3)nc(=O)c3c2CCC3)n1Cc1ccc(-c2ccc(C(F)(F)F)cc2)cc1)N(C)CCN(C)C (configuration not stated)
- inhibition (Oryctolagus cuniculus [1]): 71%

SMILES: O=c1nc(SCc2ccc(F)cc2)n(Cc2nnc(CNCCN3CCOCC3)n2Cc2ccc(-c3ccc(C(F)(F)F)cc3)cc2)c2c1CCC2
- inhibition (Oryctolagus cuniculus [1]): 32%

SMILES: CCN(CC)CCN(Cc1ccc(-c2ccc(C(F)(F)F)cc2)cc1)C(=O)Cn1c(SCc2ccc(F)cc2)nc(=O)c2c1CCC2
- inhibition (Oryctolagus cuniculus [2]): 99%
- inhibition (Oryctolagus cuniculus [1]): 82%

SMILES: COCCNCc1nnc(Cn2c(SCc3ccc(F)cc3)nc(=O)c3c2CCC3)n1Cc1ccc(-c2ccc(C(F)(F)F)cc2)cc1
- inhibition (Oryctolagus cuniculus [1]): 13%

SMILES: CN(CCN1CCCCC1)Cc1nnc(Cn2c(SCc3ccc(F)cc3)nc(=O)c3c2CCC3)n1Cc1ccc(-c2ccc(C(F)(F)F)cc2)cc1
- inhibition (Oryctolagus cuniculus [2]): 97%
- inhibition (Oryctolagus cuniculus [1]): 75%
- inhibition (Mus musculus): Active

SMILES: CN(C)CCCN(C)Cc1nnc(Cn2c(SCc3ccc(F)cc3)nc(=O)c3c2CCC3)n1Cc1ccc(-c2ccc(C(F)(F)F)cc2)cc1
- inhibition (Oryctolagus cuniculus [1]): 73%

SMILES: CN(CCN1CCCCC1)Cc1cnc(Cn2c(SCc3ccc(F)cc3)nc(=O)c3c2CCC3)n1Cc1ccc(-c2ccc(C(F)(F)F)cc2)cc1
- inhibition (Oryctolagus cuniculus [2]): 92%
- inhibition (Oryctolagus cuniculus [1]): 54%

SMILES: CN(Cc1ccccn1)Cc1nnc(Cn2c(SCc3ccc(F)cc3)nc(=O)c3c2CCC3)n1Cc1ccc(-c2ccc(C(F)(F)F)cc2)cc1
- inhibition (Oryctolagus cuniculus [1]): 36%

SMILES: CCN(CC)CCN(Cc1nnc(Cn2c(SCc3ccc(F)cc3)nc(=O)c3c2CCC3)n1Cc1ccc(-c2ccc(C(F)(F)F)cc2)cc1)C(C)C
- inhibition (Oryctolagus cuniculus [2]): 95%
- inhibition (Oryctolagus cuniculus [1]): 33%

SMILES: CC(c1nnc(Cn2c(SCc3ccc(F)cc3)nc(=O)c3c2CCC3)n1Cc1ccc(-c2ccc(C(F)(F)F)cc2)cc1)N(C)CCCN(C)C (configuration not stated)
- inhibition (Oryctolagus cuniculus [1]): 71%

SMILES: CCN(CC)CCCc1nnc(Cn2c(SCc3ccc(F)cc3)nc(=O)c3c2CCC3)n1Cc1ccc(-c2ccc(C(F)(F)F)cc2)cc1
- inhibition (Oryctolagus cuniculus [1]): 73%
- inhibition (Mus musculus): inactive

SMILES: O=c1nc(SCc2ccc(F)cc2)n(Cc2nnc(CCCN3CCCC3)n2Cc2ccc(-c3ccc(C(F)(F)F)cc3)cc2)c2c1CCC2
- inhibition (Oryctolagus cuniculus [2]): 97%
- inhibition (Oryctolagus cuniculus [1]): 75%

SMILES: CC(C)N(CCNCc1nnc(Cn2c(SCc3ccc(F)cc3)nc(=O)c3c2CCC3)n1Cc1ccc(-c2ccc(C(F)(F)F)cc2)cc1)C(C)C
- inhibition (Oryctolagus cuniculus [1]): 41%

SMILES: CCN(CC)CCCCc1nnc(Cn2c(SCc3ccc(F)cc3)nc(=O)c3c2CCC3)n1Cc1ccc(-c2ccc(C(F)(F)F)cc2)cc1
- inhibition (Oryctolagus cuniculus [2]): 95%
- inhibition (Oryctolagus cuniculus [1]): 74%
- inhibition (Mus musculus): inactive

SMILES: O=c1nc(SCc2ccc(F)cc2)n(Cc2nnc(CNCCN3CCCCC3)n2Cc2ccc(-c3ccc(C(F)(F)F)cc3)cc2)c2c1CCC2
- inhibition (Oryctolagus cuniculus [1]): 33%

SMILES: CN(C)CCN(C)Cc1nnc(Cn2c(SCc3ccc(F)cc3)nc(=O)c3c2CCC3)n1Cc1ccc(-c2ccc(C(F)(F)F)cc2)cc1
- inhibition (Oryctolagus cuniculus [1]): 77%

SMILES: O=c1nc(SCc2ccc(F)cc2)n(Cc2nnc(CCCN3CCCCC3)n2Cc2ccc(-c3ccc(C(F)(F)F)cc3)cc2)c2c1CCC2
- inhibition (Oryctolagus cuniculus [2]): 96%
- inhibition (Oryctolagus cuniculus [1]): 76%

SMILES: CCN(CCN(C)C)Cc1nnc(Cn2c(SCc3ccc(F)cc3)nc(=O)c3c2CCC3)n1Cc1ccc(-c2ccc(C(F)(F)F)cc2)cc1
- inhibition (Oryctolagus cuniculus [1]): 75%

SMILES: CN(C)[C@H]1CCN(Cc2nnc(Cn3c(SCc4ccc(F)cc4)nc(=O)c4c3CCC4)n2Cc2ccc(-c3ccc(C(F)(F)F)cc3)cc2)C1
- inhibition (Oryctolagus cuniculus [1]): 46%

SMILES: CCN(CC)CCN(C)C(C)c1nnc(Cn2c(SCc3ccc(F)cc3)nc(=O)c3c2CCC3)n1Cc1ccc(-c2ccc(C(F)(F)F)cc2)cc1 (configuration not stated)
- inhibition (Oryctolagus cuniculus [1]): 76%
- inhibition (Mus musculus): Active

SMILES: O=c1nc(SCc2ccc(F)cc2)n(Cc2nnc(CNCCN3CCCC3)n2Cc2ccc(-c3ccc(C(F)(F)F)cc3)cc2)c2c1CCC2
- inhibition (Oryctolagus cuniculus [1]): 55%

SMILES: CN(CCN1CCCC1)Cc1nnc(Cn2c(SCc3ccc(F)cc3)nc(=O)c3c2CCC3)n1Cc1ccc(-c2ccc(C(F)(F)F)cc2)cc1
- inhibition (Oryctolagus cuniculus [2]): 97%
- inhibition (Oryctolagus cuniculus [1]): 76%

SMILES: CCN(CC)CCNCc1nnc(Cn2c(SCc3ccc(F)cc3)nc(=O)c3c2CCC3)n1Cc1ccc(-c2ccc(C(F)(F)F)cc2)cc1
- inhibition (Oryctolagus cuniculus [1]): 35%

SMILES: CCN(CC)CCN(C)Cc1cnc(Cn2c(SCc3ccc(F)cc3)nc(=O)c3c2CCC3)n1Cc1ccc(-c2ccc(C(F)(F)F)cc2)cc1
- inhibition (Oryctolagus cuniculus [2]): 89%
- inhibition (Oryctolagus cuniculus [1]): 54%

SMILES: CCN(CC)CCN(C)Cc1nnc(Cn2c(SCc3ccc(F)cc3)nc(=O)c3c2CCC3)n1Cc1ccc(-c2ccc(C(F)(F)F)cc2)cc1
- inhibition (Oryctolagus cuniculus [1]): 72%
- inhibition (Mus musculus): Active

SMILES: CN(CC(=O)O)Cc1nnc(Cn2c(SCc3ccc(F)cc3)nc(=O)c3c2CCC3)n1Cc1ccc(-c2ccc(C(F)(F)F)cc2)cc1
- inhibition (Oryctolagus cuniculus [2]): 74%
- inhibition (Oryctolagus cuniculus [1]): 5%
